Assay results: the CheMixHub drug solubility set

Assay: xn = mol fraction of the nth substance listed, in the solute-free solvent

O=C1NS(=O)(=O)c2ccccc21 + CC#N + CC(C)O
solubility (g/100 g solution)
Conditions	x2 = 0.0998	x2 = 0.2002	x2 = 0.2999	x2 = 0.3996	x2 = 0.5004	x2 = 0.5997	x2 = 0.7001	x2 = 0.7997	x2 = 0.8996
293.15 K	4.08	5.79	7.19	8.27	8.87	8.79	8.19	7	5.08
298.15 K	4.75	6.64	8.05	9.07	9.79	9.66	8.97	7.68	5.75
303.15 K	5.49	7.5	9.3	10.4	11.2	10.8	10.1	8.77	6.38
308.15 K	6.33	8.56	10.5	11.7	12.3	12.3	11.5	9.73	7.32
313.15 K	7.35	10	12.1	13.4	14.2	14.1	13.1	11.2	8.37
318.15 K	8.79	11.8	14.1	15.5	16.3	16.2	15.1	12.9	9.59
323.15 K	10.3	13.5	16	17.6	18.3	18	16.8	14.3	10.7

O=C1NS(=O)(=O)c2ccccc21 + CC#N + CCO
solubility (g/100 g solution)
Conditions	x2 = 0.0999	x2 = 0.2002	x2 = 0.2997	x2 = 0.3998	x2 = 0.5002	x2 = 0.5999	x2 = 0.7001	x2 = 0.7999	x2 = 0.8999
293.15 K	5.33	7.27	8.67	9.52	9.7	9.58	8.96	7.58	5.52
298.15 K	5.91	7.97	9.45	10.3	10.7	10.6	9.85	8.34	6.08
303.15 K	6.8	9.11	10.7	11.7	12.1	11.9	11.1	9.45	6.93
308.15 K	7.49	9.96	11.7	12.7	13.5	13.2	12.3	10.5	7.63
313.15 K	8.72	11.5	13.3	14.4	14.8	14.6	13.6	11.7	8.61
318.15 K	10.1	13.2	15.3	16.5	16.8	16.7	15.4	13.3	9.87
323.15 K	11.4	14.7	16.9	18.1	18.5	18.2	17	14.6	10.9

O=c1ccc2ccccc2o1 + CC(C)=O + O
solubility (g/100 g solution)
Conditions	x2 = 0.1	x2 = 0.2	x2 = 0.3	x2 = 0.4	x2 = 0.5	x2 = 0.6	x2 = 0.7	x2 = 0.8	x2 = 0.9
268.15 K	0.474	2.21	4.51	9.81	13.8	17.1	19.9	21.9	23.1
273.15 K	0.611	2.81	6.5	11.9	16.8	20.6	23.7	25.8	26.9
278.15 K	0.798	3.96	8.98	15.3	20.9	25	27.8	30.6	31.5
283.15 K	1.05	5.18	12.2	19.5	25.5	30.2	33.1	35.3	36.2
288.15 K	1.38	6.75	16.8	24.6	31.4	36	39.3	41.2	41.8
293.15 K	1.8	9.24	22.3	31.3	38.5	42.9	46.2	47.7	48
298.15 K	2.27	12.3	29.6	38.4	45.7	49.6	52.6	53.6	53.9
303.15 K	2.96	16.8	37.4	47	53.9	57.2	59.4	59.8	59.8

CN1CCN(C(=O)OC2c3nccnc3C(=O)N2c2ccc(Cl)cn2)CC1 (centres undefined) + CCO + O
solubility (g/100 g solution)
Conditions	x2 = 0.3	x2 = 0.4	x2 = 0.5	x2 = 0.6	x2 = 0.7	x2 = 0.8	x2 = 0.9
288.15 K	0.129	0.242	0.377	0.527	0.59	0.511	0.375
298.15 K	0.208	0.397	0.63	0.85	0.998	0.9	0.647
308.15 K	0.296	0.666	1.02	1.32	1.43	1.3	0.911
318.15 K	0.474	0.988	1.51	2.03	2.31	2.12	1.53
328.15 K	0.818	1.65	2.51	3.27	3.65	3.31	2.53

CCCCN1CCCCC1C(=O)Nc1c(C)cccc1C.Cl.O (centres undefined) + CCO + O
solubility (g/100 g solution)
Conditions	293.15 K	298.15 K	303.15 K	308.15 K	313.15 K	318.15 K	323.15 K	328.15 K	333.15 K
x2 = 0.1	3.04	3.34	4.11	4.86	5.9	7.35	9.3	11.2	12.9
x2 = 0.2	3.1	3.37	4.04	4.84	6.41	7.92	10.1	12.9	15.1
x2 = 0.3	2.9	3.27	3.99	5.42	7.36	9.56	12.4	15.8	19
x2 = 0.4	2.85	3.29	4.28	5.77	7.83	10.9	14.2	18.3	22.9
x2 = 0.5	2.81	3.22	4.31	5.96	8.48	11.3	14.9	19.4	23.9
x2 = 0.6	3.15	3.43	4.62	6.22	8.61	11.5	15.1	19.4	23.7
x2 = 0.7	3.44	3.95	5.29	7.07	9.34	12.3	16.1	20.6	25
x2 = 0.8	3.84	4.16	5.55	7.29	9.54	12.4	15.9	20.2	24.7
x2 = 0.9	3.83	4.34	5.57	7.26	9.51	12.2	15.5	19.6	24

CC1(C)SC2C(NC(=O)C(NC(=O)N3CCNC3=O)c3ccccc3)C(=O)N2C1C(=O)O (centres undefined) + CCO + CC(C)O
solubility (g/100 g solution)
Conditions	278.15 K	283.15 K	288.15 K	293.15 K	298.15 K	303.15 K	308.15 K	313.15 K	318.15 K	323.15 K
x2 = 0.101	0.0833	0.0951	0.122	0.14	0.179	0.215	0.264	0.329	0.405	0.525
x2 = 0.2	0.0893	0.101	0.129	0.153	0.191	0.238	0.294	0.368	0.449	0.59
x2 = 0.301	0.119	0.135	0.164	0.208	0.248	0.287	0.369	0.426	0.528	0.687
x2 = 0.401	0.13	0.155	0.19	0.238	0.281	0.339	0.415	0.511	0.63	0.773
x2 = 0.5	0.154	0.182	0.223	0.279	0.345	0.399	0.484	0.636	0.78	0.991
x2 = 0.602	0.197	0.227	0.275	0.345	0.43	0.537	0.646	0.789	0.974	1.25
x2 = 0.703	0.268	0.302	0.368	0.464	0.539	0.677	0.857	1.05	1.29	1.61
x2 = 0.8	0.37	0.45	0.53	0.623	0.718	0.882	1.15	1.38	1.67	2.05
x2 = 0.9	0.54	0.618	0.748	0.927	1.11	1.35	1.69	2.01	2.39	2.92
